Reference: patent US20210393645A1, “TREATMENT FOR PROGRESSIVE MULTIPLE SCLEROSIS” (UTI LIMITED PARTNERSHIP, priority 2016, published 2021)
Entries after “also recorded” stand apart in the source; their conditions may differ. Counter-ions that a name gives are not always drawn. Like-named read-outs stand apart in the source and are kept apart here.

How the values were obtained:
[1] = system: human neurons; assay: Iron (FeSO4) mediated neurotoxicity screening, MAP-2 positive neurons counted; assay type: cell-based; conditions: for viability at 10 µM: Homo sapiens, Neuron, drug 10 μM 1 h before FeSO4 25 or 50 μM, MAP-2 neurons after 24 h, read-out: Drug % control (mean): number of neurons normalized to untreated control
In short: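 Fetal human neurons (15-20 wk), plated with cytosine arabinoside, were pre-incubated 1 h with compounds (10 mM DMSO stocks) before FeSO4 at 25-50 μM final. Cells fixed a day later; MAP-2 immunostaining plus Hoechst nuclei imaged automatically, sites per well averaged; quadruplicates.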

[2] = system: human neurons; assay: Mitochondrial damage to neurons induced by rotenone; assay type: cell-based; conditions: rotenone 10 μM, drug 10 μM
Procedure: Human neurons were isolated from brain tissues of therapeutically aborted 15-20 week old fetuses, in accordance with ethics approval of the University of Calgary ethics committee, after written informed consent of the pregnant donors. Neurons were isolated as previously described (Vecil et al., 2000) brain specimens were washed in phosphate buffered saline (PBS) to remove blood, followed by removal of meninges. […] Thereafter, the digestion was stopped by addition of 4 ml fetal calf serum (FCS). The solution was filtered through a 132 μm filter and centrifuged (three times, 1,200 rpm, 10 min). Cells were cultured in feeding medium of minimal essential medium (MEM) supplemented with 10% fetal bovine serum (FBS), 1 μM sodium pyruvate, 10 μM glutamine, 1× non-essential amino acids, 0.1% dextrose and 1% penicillin/streptomycin (all culture supplements from Invitrogen, Burlington, Canada). […] For experiments, the neuron-enriched cultures were retrypsinized and cells were plated in poly-L-ornithine pre-coated 96-well plates at a density of 100,000 cells/well in 100 μl of the complete medium supplemented with cytosine arabinoside. […] All conditions were performed in quadruplicates. A day later cells were fixed using 4% paraformaldehyde (PFA) and stored in PBS in 4° C.
The iron stock solution was prepared using 27.8 mg iron(II) sulfate heptahydrate (FeSO4) (Sigma-Aldrich, Oakville, Canada), 10 μl of 17.8M sulfuric acid and 10 ml deionized distilled water. After filtering with a 0.2 μm filter, FeSO4 was added to cells in a final concentration of 25-50 μM in a volume of 50 μl medium to the cells. Rotenone was dissolved in dimethyl sulfoxide (DMSO) and used in a final concentration of 10 μM.

[3] = system: T-cells; assay: Proliferation of T-lymphocytes (3H-thymidine) in anti-CD3/anti-CD28 activated splenocytes; assay type: cell-based, mouse; conditions: for inhibition at 10 µM: Mus musculus, T-cell, 72 h, drug 10 μM, vs activated splenocytes, read-out: mean reduction of 3H-thymidine incorporation (T-cell proliferation)
Procedure: A previously published protocol was used for isolating and activating T-cells (Keough et al., Nature Comm 7:11312, 2016). Spleens from female C57B16 mice were harvested and after mechanical dissociation the cell suspension was passed through a 70 μm cell strainer and separated by Ficoll gradient (1800 RPM, 30 min). Splenocytes were plated (2.5×10^5 cells in 100 μl/well) in anti-CD3 antibody coated 96-well plates (1,000 ng m1^−1 plate-bound anti-CD3 and 1,000 ng m1^−1 anti-CD28 suspended in media) to activate T-cells. Directly before plating, wells were treated with respective drugs in a final concentration of 10 μM. Cells were cultured in RPMI 1640 medium, supplemented with 10% FBS, 1 μM sodium pyruvate, 2 mM L-alanyl-L-glutamine, 1% penicillin/streptomycin, 1% HEPES and 0.05 mM 2-mercaptoethanol (all supplements were from Invitrogen). After 48 h, ^3H-thymidine was added in a concentration of 1 μCi per well, and cells were harvested after 24 h on filter mats. Mats were then evaluated for radioactivity (counts per minute) using a liquid scintillation counter.

[4] = Hydroxyl radical antioxidant capacity (HORAC) assay; assay type: biochemical; conditions: vs 12.5 μM gallic acid (=1), 60 min
Procedure: In this assay, hydroxyl radicals generated by a Co(II)-mediated Fenton-like reaction oxidize fluorescein causing loss of fluorescence (Ou et al., J Argricultural Food Chemistry 50:2772-2777, 2002). The presence of an anti-oxidant reduces the loss of fluorescence and this can be monitored every 5 min over a period of 60 min with a Spectra Max Gemini XS plate reader (Molecular Devices, Sunnyvale, Calif., USA) and the software SoftMax Pro version 5. For monitoring fluorescence, we used an excitation wavelength of λ=485 nm and an emission wavelength of λ=520 nm.
The biochemical cell free hydroxyl radical antioxidant capacity (HORAC) assay investigates the prevention of hydroxyl radical mediated oxidation of to fluorescein in comparison to the strong anti-oxidant gallic acid. The generation of hydroxyl radicals by a cobalt-driven Fenton-like reaction oxidizes fluorescein with progressive loss of fluorescence. The presence of an anti-oxidant reduces the loss of fluorescence over time.
We compared the area under the curve of test compounds to that elicited by gallic acid to obtain the gallic acid equivalent (GAE).

[5] = system: human neurons; assay: Live cell imaging of propidium iodide positive neurons challenged with FeSO4; assay type: cell-based; conditions: FeSO4 50 μM, pre-treatment 1 h
Procedure: Neurons were prepared as described above. Directly after the addition of FeSO4 to healthy neurons, the live cell-permeant Hoechst 33342 (1:2 diluted in AIM-V medium, nuclear blue; ThermoFisher Scientific, Grand Island, NY, USA) and the live cell-impermeable propinium iodide (PI, 1:20 diluted in AIM-V medium) were added in a volume of 20 μI (Sigma-Aldrich). In compromised cells, PI could now diffuse across the plasma membrane. Live cell imaging was performed using the automated ImageXpress® imaging system under controlled environmental conditions (37° C. and 5% CO2). Images were taken from 9 sites per well at baseline and then every 30 min for 12h. After export with MetaXpress®, videos were edited with ImageJ (NIH) in a uniform manner. Nuclei were pseudo colored in cyan, PI-positive cells in red.
Live cell imaging over 12 h supported the neuroprotective effects of drugs. We selected indapamide and desipramine for live imaging studies.

[6] = system: microglia; conditions: shown previously; cited from earlier work
[7] = 1 h after the last of 16 daily clomipramine injections, 25 mg/kg IP
Procedure: One h after the last administration of clomipramine animals were anesthetized with ketamine/xylazine, blood was taken by an intracardiac puncture for serum, and animals were then subjected to PBS-perfusion. […] Cervical and lumbar cords were snap frozen.
For preparation of samples, 100 pl of ice cold methanol were added to 100 pl of serum in each sample after addition of the internal standard maprotiline. The tubes were vortexed and left on ice for 10 min followed by centrifugation at 10,000×g for 4 min. An equal amount of distilled water was added to each supernatant. Spinal cord samples were each homogenized in 10 volumes of ice-cold 80% methanol. Twenty pl of o-phosphoric acid were added to all samples after addition of internal standard (maprotiline). The tubes were vortexed and left on ice for 10 min, followed by centrifugation at 10,000×g for 4 min and an equal volume of distilled water was added to each supernatant. […]
Calibration curves consisting of varying amounts of authentic clomipramine and N-desmethylclomipramine and the same fixed amount of maprotiline as added to the samples being analyzed were run in parallel through the procedure described above and the ratios of clomipramine and N-desmethylclomipramine to maprotiline were used to determine the amount of drug and metabolite in the serum and spinal cord samples.

[8] = system: mice; assay: Lysolecithin demyelination of the spinal cord in aging 8-10 months old mice; assay type: in vivo, mouse; conditions: 20 mg/kg IP immediately after lysolecithin and once per day for 2 days; day 3
Description: Active demyelinating lesions can be found in MS specimens of all ages sampled, including late in life. Indeed, age has been identified to be a factor in the dreaded conversion from relapsing-remitting into secondary progressive MS. Contributing causes for aging-associated worsening in MS that drives progression include the steady loss of axons with longevity of disease, or the deficient repair of myelin in older compared to younger patients. We tested the hypothesis that the same demyelinating injury is more devastating to axons and myelin as the individual ages.
We thus treated aging 8-10 months old mice with intraperitoneal indapamide (20 mg/kg) immediately after lysolecithin demyelination, and once per day at 20 mg/kg for the next 2 days. Spinal cord tissues were taken for histology.

Row | SMILES | viability at 10 µM [1] [%] | neurotoxicity by rotenone (mitochondrial damage) [2] | inhibition at 10 µM [3] [%] | mean HORAC-GAE (gallic acid equivalents) [4] | further results
1 | CC(CN(C)C)CN1c2ccccc2CCc2ccccc21 (stereo not shown) [TRIMIPRAMINE MALEATE] | 88.6 | reduced neurotoxicity | 54 | 4.2 | –
2 | CC(CCc1ccccc1)NCC(O)c1ccc(O)c(C(N)=O)c1 (stereo not shown) [LABETALOL HYDROCHLORIDE] | 54.4 | – | 26.8 | – | neurotoxicity by rotenone (mitochondrial damage) ([2]; HYDROCHLORIDE): reduced neurotoxicity; also recorded: active against damage to the mitochondrial respiratory chain
3 | CNCCCN1c2ccccc2CCc2ccccc21 [DESIPRAMINE HYDROCHLORIDE] | 84.4 | active against damage to the mitochondrial respiratory chain | 92.2 | -5.00 | protection from FeSO4-mediated neurotoxicity (in words) [1]: strong protection; number of PI-positive neurons in response to FeSO4 over 12 h [5]: significantly attenuated
4 | CN(C)CCC=C1c2ccccc2COc2ccccc21 [DOXEPIN HYDROCHLORIDE] | 76.9 | – | 85.3 | – | microglial activation reduced to [6]: 46%
5 | CC(CN1c2ccccc2Sc2ccccc21)N(C)C (stereo not shown) [PROMETHAZINE HYDROCHLORIDE] | 105 | reduced neurotoxicity | 74.6 | – | –
6 | N#Cc1ccc2c(c1)N(CCCN1CCC(O)CC1)c1ccccc1S2 [PERICIAZINE] | 82 | reduced neurotoxicity | 28 | – | protection from FeSO4-mediated neurotoxicity (in words) ([1]; drug 10 μM, human neurons): strong protection
7 | CNCCCN1c2ccccc2CCc2ccc(Cl)cc21 [desmethylclomipramine] | – | – | – | – | mean serum concentration [7]: 101 nM; mean spinal cord level [7]: 1.5 µM
8 | CC1Cc2ccccc2N1NC(=O)c1ccc(Cl)c(S(N)(=O)=O)c1 (stereo not shown) [INDAPAMIDE] | 126 | reduced neurotoxicity; also recorded: active against damage to the mitochondrial respiratory chain | – | 4.1 | protection from FeSO4-mediated neurotoxicity (in words) ([1]; drug 10 μM, human neurons): strong neuroprotective effects against iron toxicity; axonal loss [8]: less axonal loss; lesional malondialdehyde level [8]: reduced lesional malondialdehyde; volume of demyelination [8]: smaller volume of demyelination; number of PI-positive neurons in response to FeSO4 over 12 h [5]: significantly attenuated; effect on T-lymphocyte proliferation (in words) [3]: no effect on T-lymphocyte proliferation
